Assay results from ChEMBL document CHEMBL3120070, “Antimycobacterial evaluation of novel hybrid arylidene thiazolidine-2,4-diones” (Bioorg Med Chem Lett, 2014).
pEC50: −log10 of the molar value. Values after ≈ are worked out from the molar mass of the structure shown.

What was measured:
[1] = test system: Vero; experiment: Cytotoxicity against African green monkey Vero cells assessed as cell viability up to 62.5 ug/mL after 72 hrs by MTT assay; assay type: cell-based; conditions: chlorocebus sabaeus
[2] = test system: Mycobacterium tuberculosis; experiment: Potency index, ratio of pyrimethamine MIC90 to compound MIC90 for Mycobacterium tuberculosis H37Rv; assay type: functional
[3] = test system: Mycobacterium tuberculosis; experiment: Antimycobacterial activity against Mycobacterium tuberculosis H37Rv assessed as growth inhibition by Alamar Blue staining-based broth microdilution assay; assay type: functional, organism-based
[4] = test system: Mycobacterium tuberculosis; experiment: Potency index, ratio of pyrimethamine EC50 to compound EC50 for Mycobacterium tuberculosis H37Rv; assay type: functional
[5] = test system: Mycobacterium tuberculosis; experiment: Potency index, ratio of cycloserine EC50 to compound EC50 for Mycobacterium tuberculosis H37Rv; assay type: functional
[6] = test system: Mycobacterium tuberculosis; experiment: Potency index, ratio of pyrimethamine EC90 to compound EC90 for Mycobacterium tuberculosis H37Rv; assay type: functional

Compound | Activity [1] | Ratio [2] | pEC50 [3] | EC90 [3] | MIC90 [3] | Ratio EC50 [4] | Ratio EC50 [5] | Ratio [6]
O=C(C1CC1)C(c1ccccc1F)N1C(=O)S/C(=C\c2ccc(F)cc2)C1=O (stereo unspecified) | Non-toxic | 4 | 4.96 | 25 µM | 25 µM (≈ 9.99 µg/mL) | – | – | –
CC[C@@H](CO)NCCN[C@@H](CC)CO [ETHAMBUTOL] | – | – | > 5.81 | 32.8 µM | 12.5 µM (≈ 2.55 µg/mL) | – | – | –
O=C(C1CC1)C(c1ccccc1F)N1C(=O)S/C(=C\c2ccccc2)C1=O (stereo unspecified) | Non-toxic | – | 4.77 | 36 µM | 50 µM (≈ 19.1 µg/mL) | – | – | –
N[C@@H]1CONC1=O [CYCLOSERINE] | – | – | 4.90 | 13.5 µM | 25 µM (≈ 2.55 µg/mL) | – | – | –
O=C(C1CC1)C(c1ccccc1F)N1C(=O)S/C(=C\c2cccs2)C1=O (stereo unspecified) | Non-toxic | 4 | 5.22 | 11 µM | 25 µM (≈ 9.69 µg/mL) | 5.85 | 1.95 | 6.26
COc1cc(OC)c(/C=C2\SC(=O)N(C(C(=O)C3CC3)c3ccccc3F)C2=O)c(OC)c1 (stereo unspecified) | Non-toxic | – | 4.89 | 27 µM | 50 µM (≈ 23.6 µg/mL) | – | – | –
COc1ccc(/C=C2\SC(=O)N(C(C(=O)C3CC3)c3ccccc3F)C2=O)cc1OC (stereo unspecified) | Non-toxic | 4 | 5.10 | 16 µM | 25 µM (≈ 11 µg/mL) | – | – | –
O=C(C1CC1)C(c1ccccc1F)N1C(=O)S/C(=C\c2cc(Br)cs2)C1=O (stereo unspecified) | Non-toxic | – | 4.74 | 27 µM | 50 µM (≈ 23.3 µg/mL) | – | – | –
O=C(C1CC1)C(c1ccccc1F)N1C(=O)CSC1=O (stereo unspecified) | Non-toxic | 4 | 5.22 | 26 µM | 25 µM (≈ 7.33 µg/mL) | – | – | –
COc1ccc(/C=C2\SC(=O)N(C(C(=O)C3CC3)c3ccccc3F)C2=O)cc1 (stereo unspecified) | Non-toxic | 4 | 4.96 | 27 µM | 25 µM (≈ 10.3 µg/mL) | – | – | –
O=C(C1CC1)C(c1ccccc1F)N1C(=O)S/C(=C\c2ccc(Cl)cc2)C1=O (stereo unspecified) | Non-toxic | – | 4.60 | 55 µM | 50 µM (≈ 20.8 µg/mL) | – | – | –
O=C(C1CC1)C(c1ccccc1F)N1C(=O)S/C(=C\c2ccc3ccccc3n2)C1=O (stereo unspecified) | Non-toxic | 4 | 4.85 | 68 µM | 25 µM (≈ 10.8 µg/mL) | – | – | –
CSc1ccc(/C=C2\SC(=O)N(C(C(=O)C3CC3)c3ccccc3F)C2=O)cc1 (stereo unspecified) | Non-toxic | 4 | 4.80 | 25 µM | 25 µM (≈ 10.7 µg/mL) | – | – | –
O=C(C1CC1)C(c1ccccc1F)N1C(=O)S/C(=C\c2ccc(O)cc2)C1=O (stereo unspecified) | Non-toxic | 4 | 5.00 | 19 µM | 25 µM (≈ 9.94 µg/mL) | – | – | –
NNC(=O)c1ccncc1 [ISONIAZID] | – | – | 6.74 | 0.29 µM | 0.31 µM (≈ 0.0425 µg/mL) | – | – | –
O=C(C1CC1)C(c1ccccc1F)N1C(=O)S/C(=C\c2ccc3c(c2)OCO3)C1=O (stereo unspecified) | Non-toxic | 4 | 5.05 | 21 µM | 25 µM (≈ 10.6 µg/mL) | – | – | –
COc1cc(Br)c(/C=C2\SC(=O)N(C(C(=O)C3CC3)c3ccccc3F)C2=O)cc1O (stereo unspecified) | Non-toxic | – | 4.82 | 54 µM | 50 µM (≈ 25.3 µg/mL) | – | – | –
O=C(C1CC1)C(c1ccccc1F)N1C(=O)S/C(=C\c2ccc(N3CCCCC3)cc2)C1=O (stereo unspecified) | Non-toxic | 4 | 4.62 | 36 µM | 25 µM (≈ 11.6 µg/mL) | – | – | –
COc1cc(/C=C2\SC(=O)N(C(C(=O)C3CC3)c3ccccc3F)C2=O)cc(OC)c1OC (stereo unspecified) | Non-toxic | – | 4.72 | 53 µM | 50 µM (≈ 23.6 µg/mL) | – | – | –
O=C(C1CC1)C(c1ccccc1F)N1C(=O)S/C(=C\c2c[nH]c3ccccc23)C1=O (stereo unspecified) | Non-toxic | 4 | 4.74 | 27 µM | 25 µM (≈ 10.5 µg/mL) | – | – | –
NCC[C@H](O)C(=O)N[C@@H]1C[C@H](N)[C@@H](O[C@H]2O[C@H](CN)[C@@H](O)[C@H](O)[C@H]2O)[C@H](O)[C@H]1O[C@H]1O[C@H](CO)[C@@H](O)[C@H](N)[C@H]1O [AMIKACIN] | – | – | – | 0.08 µM | 0.16 µM (≈ 0.0937 µg/mL) | – | – | –
CCc1nc(N)nc(N)c1-c1ccc(Cl)cc1 [PYRIMETHAMINE] | – | – | 4.43 | 75 µM | 100 µM (≈ 24.9 µg/mL) | – | – | –
O=C(C1CC1)C(c1ccccc1F)N1C(=O)S/C(=C\c2ccc(O)c(O)c2)C1=O (stereo unspecified) | Non-toxic | 4 | 4.68 | 55 µM | 25 µM (≈ 10.3 µg/mL) | – | – | –
